From patent US11376214B2, “Compositions and methods for treatment of ocular diseases” (KIORA PHARMACEUTICALS, INC., priority 2019, dated 2022)
Counter-ions that a name gives are not always drawn. Like-named read-outs stand apart in the source and are kept apart here.

How the values were obtained:
[1] = cited from earlier work
[2] = Rheological testing (parallel plate rheometer): viscosity and shear-thinning; format: physicochemical; settings: antibiotic 1 mg/ml incorporated in hydrogel (CMHA-S about 7.5 mg/ml)
Experimental: Thiol-modified carboxymethyl HA (CMHA-S) was synthesized as described in Lawyer et al. and Wendling et al., with a thiol modification of 0.1, 0.2, 0.4, or 0.7 μmol thiol/mg. Hydrogels were created by dissolving CMHA-S in phosphate-buffered saline (PBS; pH 7.4). The CMHA-S was disulfide crosslinked under continuous mixing with the addition of sodium hypochlorite. Rheological testing was performed using a parallel plate format rheometer with a 25 mm-diameter stainless steel geometry. Samples (5-6 ml) of hydrogel were placed in a 35 mm Petri dish, and the geometry was lowered to a gap of 5 mm. To determine viscosity and shear-thinning, the shear rate was varied from 0.1 to 10 Hz. A decreasing viscosity as shear rate increases indicates shear-thinning behavior. Table 1 provides the thiol modification of the CMHA-S, concentration of CMHA-S, and resultant viscosity of the hydrogel (at 2.5 Hz) for 4 hydrogel formulations.
(§1) Viscosity, pH, and refractive index (RI) were measured for hydrogels described in Example 2 with and without antibiotic incorporated. […] Viscosity was determined as described in Example 1. RI was measured with a refractometer and pH was measured with a pH meter.

pH by pH meter = format: physicochemical; settings: antibiotic 1 mg/ml incorporated in hydrogel (CMHA-S about 7.5 mg/ml)
Experimental: as §1

[3] = Refractive index by refractometer; format: physicochemical; settings: antibiotic 1 mg/ml incorporated in hydrogel (CMHA-S about 7.5 mg/ml)
Experimental: as §1

[4] = Release of antibiotic from hydrogel or PBS in dialysis chamber; format: physicochemical
Experimental: For this assessment, a 0.5 ml sample of hydrogel plus drug or PBS plus drug was placed into a medi-dialysis chamber, and the chamber was placed in a beaker containing 100 ml of PBS. The remaining amount of drug in the dialysis chamber was monitored using UV spectroscopy at various time points. […] The release was monitored as described above. […] Another drug release study was performed, with Moxi-FB and Besi-HCl as the antibiotics, a hydrogel with 7.5 mg/ml CMHA-S, and the antibiotics incorporated at 10 mg/ml. For this study, the samples were placed in a dialysis chamber that was then placed in a tube that contained 10 ml of PBS. The dialysis chamber was transferred to a new tube at each time point, and the dialysate was analyzed by UV absorption (rather than the material inside the dialysis chamber), and the released amount of drug was calculated (rather than the amount remaining). In this experimental set-up, drug release from the hydrogel was slower than from PBS (FIGS. 4A and 4B). Despite the poor water solubility of Besi-HCl compared to Moxi-FB, Besi-HCl was still released from the hydrogel.

Pseudomonas aeruginosa = assay: Zone of inhibition (ZOI) study of dialysate samples; format: cell-based; settings: P. aeruginosa
Experimental: (§2) To verify the efficacy of a drug in the hydrogel, zone of inhibition (ZOI) studies were conducted. […] Samples of the dialysate were collected at 0, 1, 2, 4, and 8 hours. Filter paper disks were soaked in each sample, placed on a bacteria-inoculated plate, and the ZOIs were compared between PBS group and hydrogel group.

Staphylococcus aureus = assay: as above; format: cell-based; settings: S. aureus
Experimental: as §2

[5] = released from PBS (1 mg/ml), dialysate at 4 hrs
[6] = released from PBS (1 mg/ml), dialysate at 8 hrs
[7] = released from hydrogel (CMHA-S 7.5 mg/ml, drug 1 mg/ml), dialysate at 8 hrs

COc1c(N2C[C@@H]3CCCN[C@@H]3C2)c(F)cc2c(=O)c(C(=O)O)cn(C3CC3)c12 [Moxi-FB, moxifloxacin]
solubility in water [1]: about 1 mg/ml

NC[C@H]1O[C@H](O[C@H]2[C@H](O)[C@@H](O[C@H]3O[C@H](CO)[C@@H](O)[C@H](N)[C@H]3O)[C@H](N)C[C@@H]2N)[C@H](N)C[C@@H]1O [Tobramycin, tobramycin]
Viscosity at 2.5 Hz [2]: 1.4 Pa · s
solubility in water [1]: > 50 mg/mL
pH (pH by pH meter): 8.6
Refractive index [3]: 1.3355

N[C@@H]1CCCCN(c2c(F)cc3c(=O)c(C(=O)O)cn(C4CC4)c3c2Cl)C1 [Besi-HCl, besifloxacin hydrochloride]
drug release from hydrogel compared with PBS ([4]; antibiotic 10 mg/ml in hydrogel with 7.5 mg/ml CMHA-S, dialysis chamber in 10 ml PBS, new tube at each time point, dialysate UV): slower
solubility in water [1]: about 1 mg/ml

COc1c(N2C[C@@H]3CCCN[C@@H]3C2)c(F)cc2c(=O)c(C(=O)O)cn(C3CC3)c12 [Moxi-HCl, moxifloxacin hydrochloride]
ZOI (Pseudomonas aeruginosa; [5]): 24.7 ± 2.8 mm
ZOI (Pseudomonas aeruginosa; [6]): 20.5 ± 1.8 mm
ZOI (Pseudomonas aeruginosa; released from hydrogel (CMHA-S 7.5 mg/ml, drug 1 mg/ml), dialysate at 1 hrs): 28.7 ± 0.3 mm
ZOI (Pseudomonas aeruginosa; released from hydrogel (CMHA-S 7.5 mg/ml, drug 1 mg/ml), dialysate at 4 hrs): 26.8 ± 1.4 mm
ZOI (Pseudomonas aeruginosa; [7]): 26.5 ± 3.2 mm
ZOI (Staphylococcus aureus; released from PBS (1 mg/ml), dialysate at 2 hrs): 28.3 ± 1.0 mm
ZOI (Staphylococcus aureus; [5]): 26.5 ± 2.5 mm
ZOI (Staphylococcus aureus; [6]): 23.5 ± 2.8 mm
ZOI (Staphylococcus aureus; [7]): 27.2 ± 1.3 mm
Viscosity at 2.5 Hz ([2]; hydrochloride): 1.6 Pa · s
drug release from hydrogel compared with PBS ([4]; drug 1 mg/ml in hydrogel #4 (CMHA-S 4.0 mg/ml)): slightly slower
time within which release was complete ([4]; drug 1 mg/ml in hydrogel #4 (CMHA-S 4.0 mg/ml), medi-dialysis chamber in 100 ml PBS): ≤ 4 h
drug release from hydrogel compared with PBS ([4]; drug 1 mg/ml in hydrogel (CMHA-S about 7.5 mg/ml), medi-dialysis chamber in 100 ml PBS): only slightly slowed down
solubility in water ([1]; hydrochloride): ~20 mg/mL
pH (pH by pH meter; hydrochloride): 7.0
Refractive index ([3]; hydrochloride): 1.3355
